From ChEMBL document CHEMBL1201862, “PubChem BioAssay data set” (2004)
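All cell lines were grown in 96-well plates and treated with compound for 48 hours. Abbreviation: GI50, concentration required for 50% inhibition of growth.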 Active and inactive are the calls of the source. Rule as the data show it: active = GI50 up to about 1.1 µM and inactive = higher.

Assays:
Assay in all cases: NCI anticancer screen, dose series, 48 h
[1] = tested on: M14
[2] = tested on: UO-31
[3] = tested on: MOLT-4
[4] = tested on: SF-539
[5] = tested on: M19-MEL
[6] = tested on: HOP-62
[7] = tested on: HCT-15
[8] = tested on: Malme-3M
[9] = tested on: A498
[10] = tested on: NCI-H522
[11] = tested on: HOP-18
[12] = tested on: ACHN
[13] = tested on: DMS-273
[14] = tested on: SNB-19
[15] = tested on: SW-620
[16] = tested on: KM-20L2
[17] = tested on: LXFL 529
[18] = tested on: SK-MEL-28
[19] = tested on: RXF 631
[20] = tested on: OVCAR-4
[21] = tested on: SK-OV-3
[22] = tested on: NCI-H23
[23] = tested on: IGROV-1
[24] = tested on: DMS-114
[25] = tested on: SNB-75
[26] = tested on: RPMI-8226
[27] = tested on: SK-MEL-5
[28] = tested on: SN12C
[29] = tested on: RXF 393
[30] = tested on: TK-10
[31] = tested on: UACC-62
[32] = tested on: EKVX
[33] = tested on: DLD-1
[34] = tested on: CCRF-CEM
[35] = tested on: K562
[36] = tested on: A549
[37] = tested on: NCI-H226
[38] = tested on: COLO 205
[39] = tested on: SK-MEL-2
[40] = tested on: NCI-H460
[41] = tested on: SNB-78
[42] = tested on: 786-0
[43] = tested on: HCC 2998
[44] = tested on: HL-60
[45] = tested on: KM12
[46] = tested on: SR
[47] = tested on: SF-295
[48] = tested on: HCT-116
[49] = tested on: OVCAR-8
[50] = tested on: UACC-257
[51] = tested on: OVCAR-5
[52] = tested on: OVCAR-3
[53] = tested on: XF498
[54] = tested on: CAKI-1
[55] = tested on: SF-268
[56] = tested on: HT-29
[57] = tested on: HOP-92
[58] = tested on: U-251
[59] = tested on: LOX IMVI

Compound: CC(=O)CC(=O)NC=O
- GI50 [1]: > 100 µM (inactive)
- GI50 [2]: > 100 µM (inactive)
- GI50 [3]: > 100 µM (inactive)
- GI50 [4]: > 100 µM (inactive)
- GI50 [5]: > 100 µM (inactive)
- GI50 [6]: > 100 µM (inactive)
- GI50 [7]: > 100 µM
- GI50 [8]: > 100 µM (inactive)
- GI50 [9]: > 100 µM (inactive)
- GI50 [10]: > 100 µM (inactive)
- GI50 [11]: > 100 µM (inactive)
- GI50 [12]: > 100 µM (inactive)
- GI50 [13]: > 100 µM (inactive)
- GI50 [14]: > 100 µM (inactive)
- GI50 [15]: > 100 µM (inactive)
- GI50 [16]: > 100 µM (inactive)
- GI50 [17]: > 100 µM (inactive)
- GI50 [18]: > 100 µM (inactive)
- GI50 [19]: > 100 µM (inactive)
- GI50 [20]: > 100 µM (inactive)
- GI50 [21]: > 100 µM (inactive)
- GI50 [22]: > 100 µM (inactive)
- GI50 [23]: > 100 µM (inactive)
- GI50 [24]: > 100 µM (inactive)
- GI50 [25]: > 100 µM (inactive)
- GI50 [26]: > 100 µM (inactive)
- GI50 [27]: > 100 µM (inactive)
- GI50 [28]: > 100 µM (inactive)
- GI50 [29]: > 100 µM (inactive)
- GI50 [30]: > 100 µM (inactive)
- GI50 [31]: > 100 µM (inactive)
- GI50 [32]: > 100 µM (inactive)
- GI50 [33]: > 100 µM (inactive)
- GI50 [34]: > 100 µM (inactive)
- GI50 [35]: > 100 µM (inactive)
- GI50 [36]: > 100 µM (inactive)
- GI50 [37]: > 100 µM (inactive)
- GI50 [38]: > 100 µM (inactive)
- GI50 [39]: > 100 µM (inactive)
- GI50 [40]: > 100 µM (inactive)
- GI50 [41]: > 100 µM (inactive)
- GI50 [42]: > 100 µM (inactive)
- GI50 [43]: > 100 µM (inactive)
- GI50 [44]: > 100 µM (inactive)
- GI50 [45]: > 100 µM (inactive)
- GI50 [46]: > 100 µM (inactive)
- GI50 [47]: > 100 µM (inactive)
- GI50 [48]: > 100 µM (inactive)
- GI50 [49]: > 100 µM (inactive)
- GI50 [50]: > 100 µM (inactive)
- GI50 [51]: > 100 µM (inactive)
- GI50 [52]: > 100 µM (inactive)
- GI50 [53]: > 100 µM (inactive)
- GI50 [54]: > 100 µM (inactive)
- GI50 [55]: > 100 µM (inactive)
- GI50 [56]: > 100 µM (inactive)
- GI50 [57]: > 100 µM (inactive)
- GI50 [58]: > 100 µM (inactive)

Compound: O=C1C(Cl)=C(Cl)C(=O)N1c1cccc(C(F)(F)F)c1
- GI50 [1]: > 100 µM (inactive)
- GI50 [2]: > 100 µM (inactive)
- GI50 [3]: 51.4 µM (inactive)
- GI50 [4]: > 100 µM (inactive)
- GI50 [5]: > 100 µM (inactive)
- GI50 [6]: > 100 µM (inactive)
- GI50 [7]: > 100 µM
- GI50 [8]: > 100 µM (inactive)
- GI50 [9]: > 100 µM (inactive)
- GI50 [10]: 12.1 µM (inactive)
- GI50 [11]: > 100 µM (inactive)
- GI50 [12]: > 100 µM (inactive)
- GI50 [13]: > 100 µM (inactive)
- GI50 [14]: > 100 µM (inactive)
- GI50 [15]: > 100 µM (inactive)
- GI50 [16]: > 100 µM (inactive)
- GI50 [17]: > 100 µM (inactive)
- GI50 [18]: > 100 µM (inactive)
- GI50 [19]: > 100 µM (inactive)
- GI50 [20]: > 100 µM (inactive)
- GI50 [21]: > 100 µM (inactive)
- GI50 [22]: > 100 µM (inactive)
- GI50 [23]: > 100 µM (inactive)
- GI50 [24]: > 100 µM (inactive)
- GI50 [25]: > 100 µM (inactive)
- GI50 [26]: > 65.6 µM (inactive)
- GI50 [27]: > 100 µM (inactive)
- GI50 [28]: > 100 µM (inactive)
- GI50 [29]: 34 µM (inactive)
- GI50 [30]: > 100 µM (inactive)
- GI50 [31]: > 100 µM (inactive)
- GI50 [32]: > 100 µM (inactive)
- GI50 [33]: > 93.3 µM (inactive)
- GI50 [34]: > 51.9 µM (inactive)
- GI50 [35]: > 54.5 µM (inactive)
- GI50 [36]: > 100 µM (inactive)
- GI50 [37]: > 100 µM (inactive)
- GI50 [38]: > 79.3 µM (inactive)
- GI50 [39]: > 100 µM (inactive)
- GI50 [40]: > 100 µM (inactive)
- GI50 [41]: > 100 µM (inactive)
- GI50 [42]: > 100 µM (inactive)
- GI50 [43]: > 100 µM (inactive)
- GI50 [44]: > 100 µM (inactive)
- GI50 [59]: > 100 µM (inactive)
- GI50 [45]: > 100 µM (inactive)
- GI50 [46]: 35.9 µM (inactive)
- GI50 [47]: > 100 µM (inactive)
- GI50 [48]: > 100 µM (inactive)
- GI50 [49]: > 100 µM (inactive)
- GI50 [50]: > 100 µM (inactive)
- GI50 [51]: > 100 µM (inactive)
- GI50 [52]: > 100 µM (inactive)
- GI50 [53]: 3.77 µM (inactive)
- GI50 [54]: > 61.9 µM (inactive)
- GI50 [55]: > 100 µM (inactive)
- GI50 [56]: > 100 µM (inactive)
- GI50 [57]: > 100 µM (inactive)
- GI50 [58]: > 100 µM (inactive)

Compound: Cc1c(C(=O)/C=C/c2ccc3c(c2)OCO3)[n+]([O-])c2ccccc2[n+]1[O-]
- GI50 [1]: 28.1 µM (inactive)
- GI50 [2]: 28 µM (inactive)
- GI50 [3]: 22.9 µM (inactive)
- GI50 [4]: 22.5 µM (inactive)
- GI50 [5]: 35.2 µM (inactive)
- GI50 [6]: > 100 µM (inactive)
- GI50 [8]: 89.5 µM (inactive)
- GI50 [9]: 20.4 µM (inactive)
- GI50 [10]: 15.3 µM (inactive)
- GI50 [11]: 86.7 µM (inactive)
- GI50 [12]: 35.6 µM (inactive)
- GI50 [13]: 22.6 µM (inactive)
- GI50 [14]: 56 µM (inactive)
- GI50 [15]: 37.2 µM (inactive)
- GI50 [16]: 22.3 µM (inactive)
- GI50 [17]: 22.2 µM (inactive)
- GI50 [18]: 61 µM (inactive)
- GI50 [19]: 53.6 µM (inactive)
- GI50 [20]: 40.6 µM (inactive)
- GI50 [21]: 21.3 µM (inactive)
- GI50 [22]: 19.5 µM (inactive)
- GI50 [23]: 34.6 µM (inactive)
- GI50 [24]: 21.4 µM (inactive)
- GI50 [25]: 26.1 µM (inactive)
- GI50 [26]: 27 µM (inactive)
- GI50 [28]: 23 µM (inactive)
- GI50 [29]: 23 µM (inactive)
- GI50 [30]: 36.1 µM (inactive)
- GI50 [31]: 27.2 µM (inactive)
- GI50 [32]: 24.7 µM (inactive)
- GI50 [33]: 38.6 µM (inactive)
- GI50 [34]: 32.9 µM (inactive)
- GI50 [35]: 33 µM (inactive)
- GI50 [36]: 32.7 µM (inactive)
- GI50 [37]: 16 µM (inactive)
- GI50 [38]: 27.7 µM (inactive)
- GI50 [40]: 28.4 µM (inactive)
- GI50 [41]: 36.2 µM (inactive)
- GI50 [42]: 42.1 µM (inactive)
- GI50 [43]: 23.1 µM (inactive)
- GI50 [44]: 30.8 µM (inactive)
- GI50 [59]: 26.1 µM (inactive)
- GI50 [45]: 31.9 µM (inactive)
- GI50 [46]: 30.3 µM (inactive)
- GI50 [47]: 28.7 µM (inactive)
- GI50 [48]: 29.4 µM (inactive)
- GI50 [49]: 23.8 µM (inactive)
- GI50 [50]: 31 µM (inactive)
- GI50 [51]: 27.8 µM (inactive)
- GI50 [52]: 24.2 µM (inactive)
- GI50 [53]: 25.8 µM (inactive)
- GI50 [54]: 25.9 µM (inactive)
- GI50 [55]: 52.6 µM (inactive)
- GI50 [56]: 26.4 µM (inactive)
- GI50 [57]: 21.1 µM (inactive)
- GI50 [58]: 30.3 µM (inactive)
